System: E. coli strain 25922
Assay: Efficacy Study of E. coli Strain 25922 (coupon touch transfer to TSA plate)
Type: cell-based
Conditions: 60 s contact time, Rep 1 and 2
Method: On a coupon, 0.05 mL of the inocula (E. coli strain 25922) was added to the center of each test coupon and left to dry. Using a sterile glove, 0.05 grams of the test lotion was mechanically rubbed onto the test coupon to mimic rubbing hand sanitizer onto the skin of hands. There was a contact time of either 60 seconds or 4 hours allowed to lapse prior to placing the coupon touch transfer to the trypticase soy agar (TSA) plate. The coupon was then placed onto the TSA plate and allowed contact for 15 seconds in 3 different locations. The plates were then incubated for 24 hours at 37° C.

[1] = 0.05 grams lotion on inoculated coupon, TNTC = Too Numerous to Count

Structure (SMILES): CC(C)O [Control 17, isopropyl alcohol]
- Placement 1/CFU [1]: 0 CFU
- Placement 2/CFU [1]: 0 CFU
- Placement 3/CFU [1]: 0 CFU
- Log Reduction (Criteria ~5 Log Reduction in 60 sec.): 6 Log
